Patent publication US9409893B2, “Heteroaryl derivatives and uses thereof” (Jacobus Pharmaceutical Company, Inc., priority 2012, dated 2016)

Target: hERG potassium channel (Homo sapiens, UniProt Q12809)
Experiment: Whole cell patch clamp of cloned hERG potassium channels expressed in HEK293 cells
Format: cell-based
Conditions: for IC50: patch clamp, read-out: IC50 for the inhibitory effect on hERG potassium current
Text: For in vitro testing, the functional hERG assay using conventional patch clamp electrophysiology is considered the gold standard for assessment of drug interactions with the hERG potassium channel (Yao et al., Br. J. Pharmacol. 2008, 154, 1446-1456). In this assay, hERG channels are expressed in a human embryonic kidney (HEK293) cell line that lacks endogenous IKr.
The objective of this study was to examine the in vitro effects of test articles on the hERG (human ether-à-go-go-related gene) potassium channel current (a surrogate for IKr, the rapidly activating delayed rectifier cardiac potassium current).
All chemicals used in solution preparation were purchased from Sigma-Aldrich (St. Louis, Mo.) unless otherwise noted and were of ACS reagent grade purity or higher. Stock solutions of the test article and the positive control were prepared in dimethyl sulfoxide (DMSO) and stored frozen. Test article and positive control concentrations were prepared fresh daily by diluting stock solutions into a HEPES-buffered physiological saline (HB-PS) solution (composition in mM): NaCl, 137; KCl, 4.0; CaCl2, 1.8; MgCl2, 1; HEPES, 10; Glucose, 10; pH adjusted to 7.4 with NaOH (prepared weekly and refrigerated until use).
HEK/hERG • Organism: Homo sapiens • Designation: 293 • Tissue: Kidney; Transformed with adenovirus 5 DNA; Transfected with human-ether-a-go-go cDNA • Morphology: Epithelial • Age Stage Embryo • Source Strain: ATCC, Manassas, Va. • Source Substrain ChanTest Corporation, Cleveland, Ohio
HEK293 cells were stably transfected with hERG cDNA. Stable transfectants were selected by coexpression with the G418-resistance gene incorporated into the expression plasmid. Selection pressure was maintained by including G418 in the culture medium. Cells were cultured in Dulbecco's Modified Eagle Medium/Nutrient Mixture F-12 (D-MEM/F-12) supplemented with 10% fetal bovine serum, 100 U/mL penicillin G sodium, 100 μg/mL streptomycin sulfate and 500 μg/mL G418.
All experiments were performed at room temperature. Each cell acted as its own control.
Experiments were performed as outlined in the section entitled Experimental Procedures. Concentrations were selected to evaluate the concentration-response relationship of each test article based on the initial results or the solubility limits in vehicle. Each concentration was tested in at least three cells (n≧3).
Cells were transferred to the recording chamber and superfused with vehicle control solution. Micropipette solution for whole cell patch clamp recordings was composed of (mM): potassium aspartate, 130; MgCl2, 5; EGTA, 5; ATP, 4; HEPES, 10; pH adjusted to 7.2 with KOH. Pipette solution was prepared in batches, aliquoted, stored frozen, and a fresh aliquot was thawed each day. Patch pipettes were made from glass capillary tubing using a P-97 micropipette puller (Sutter Instruments, Novato, Calif.). A commercial patch clamp amplifier was used for whole cell recordings. Before digitization, current records were low-pass filtered at one-fifth of the sampling frequency.
Onset and steady state inhibition of hERG current was measured using a pulse pattern with fixed amplitudes (conditioning prepulse: +20 mV for 2 s; test pulse: −50 mV for 2 s) repeated at 10 s intervals, from a holding potential of −80 mV. Peak tail current was measured during the 2 s step to −50 mV.
Each test article at 10 μM was applied to at least 3 cells (n≧3).
One or more test article concentrations were applied sequentially (without washout between test substance concentrations) in ascending order, to each cell (n≧3). A steady state was maintained for at least 30 s before applying test article or positive control. Peak current was measured until a new steady state was achieved.
Steady state was defined by the limiting constant rate of change with time (linear time dependence). The steady state before and after test article application was used to calculate the percentage of current inhibited at each concentration. […]

[1] = human, HEK293 cells stably expressing hERG, pH 7.4, HEK293/hERG, room temperature, read-out: Mean percentage of hERG current inhibited

Sequence of hERG potassium channel (Q12809 whole entry): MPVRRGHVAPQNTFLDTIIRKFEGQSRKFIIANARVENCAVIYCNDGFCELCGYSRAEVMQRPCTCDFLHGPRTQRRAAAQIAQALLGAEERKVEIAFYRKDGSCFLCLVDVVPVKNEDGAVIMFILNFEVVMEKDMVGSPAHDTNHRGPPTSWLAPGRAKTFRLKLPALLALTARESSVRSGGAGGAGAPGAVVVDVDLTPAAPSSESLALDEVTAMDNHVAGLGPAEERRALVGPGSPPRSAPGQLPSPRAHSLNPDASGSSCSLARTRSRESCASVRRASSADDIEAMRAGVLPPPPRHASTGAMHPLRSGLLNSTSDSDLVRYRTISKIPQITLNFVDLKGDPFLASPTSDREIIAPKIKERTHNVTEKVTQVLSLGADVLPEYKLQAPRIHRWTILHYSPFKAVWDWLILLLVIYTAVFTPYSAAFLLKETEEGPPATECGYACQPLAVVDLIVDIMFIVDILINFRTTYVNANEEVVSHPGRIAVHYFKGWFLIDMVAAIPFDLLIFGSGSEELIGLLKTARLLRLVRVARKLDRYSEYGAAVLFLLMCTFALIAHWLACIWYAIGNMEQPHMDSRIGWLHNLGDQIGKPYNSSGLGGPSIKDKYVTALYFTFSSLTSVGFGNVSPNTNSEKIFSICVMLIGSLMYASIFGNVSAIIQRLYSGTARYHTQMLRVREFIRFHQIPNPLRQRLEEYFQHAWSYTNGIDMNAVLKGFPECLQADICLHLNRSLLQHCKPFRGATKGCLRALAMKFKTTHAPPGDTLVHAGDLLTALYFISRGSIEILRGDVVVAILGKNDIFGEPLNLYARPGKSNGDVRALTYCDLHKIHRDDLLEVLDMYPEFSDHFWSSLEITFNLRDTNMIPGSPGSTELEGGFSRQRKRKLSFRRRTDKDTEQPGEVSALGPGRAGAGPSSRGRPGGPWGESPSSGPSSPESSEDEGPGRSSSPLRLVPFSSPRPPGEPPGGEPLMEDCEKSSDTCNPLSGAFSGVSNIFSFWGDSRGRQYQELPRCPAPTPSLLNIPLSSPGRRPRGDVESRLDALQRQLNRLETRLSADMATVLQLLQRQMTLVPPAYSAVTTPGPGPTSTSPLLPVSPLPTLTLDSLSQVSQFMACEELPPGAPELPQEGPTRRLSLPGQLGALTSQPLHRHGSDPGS

Q: With CC(C)(C)NCc1cc(C(C)(C)C)cc(-c2ccc(C(F)(F)F)nc2)c1O.Cl [Example 1, 4-(tert-Butyl)-2-((tert-butylamino)methyl)-6-(6-(trifluoromethyl)pyridin-3-yl)phenol hydrochloride] as the compound, how does the IC50 (HEK293/hERG) read?
A: 9.8 µM

Q: What about the “Hill coefficient of hERG inhibition” value (fit of concentration-response data) of the same compound?
A: 1.4

Q: And the inhibition at 3 µM [1]?
A: 18.4%

Q: What about the inhibition at 10 µM [1] of the same compound?
A: 48.5%

Q: What about the inhibition at 30 µM [1] of the same compound?
A: 84%

Q: What about the inhibition at 100 µM (human, HEK293 cells stably expressing hERG, pH 7.4, 100 μM, HEK293/hERG, room temperature, read-out: Mean percentage of hERG current inhibited) of the same compound?
A: 98.2%

Q: Which results are given for CC(C)(C)NCc1cc(C(C)(C)C)cc(-c2cnc(C(F)(F)F)nc2)c1O.Cl [Example 33, 4-(tert-Butyl)-2-((tert-butylamino)methyl)-6-(2-(trifluoromethyl)pyrimidin-5-yl)phenol hydrochloride]?
A: IC50 (HEK293/hERG): > 10 µM; inhibition at 3 µM [1]: 4.1%; inhibition at 10 µM [1]: 12.9%; inhibition at 30 µM [1]: 24.3%

Q: With CC(C)(C)NCc1cc(C(C)(C)C)cc(-c2cnc(C(F)(F)F)c(F)c2)c1O.Cl [Example 34, 4-(tert-Butyl)-2-((tert-butylamino)methyl)-6-(5-fluoro-6-(trifluoromethyl)pyridin-3-yl)phenol hydrochloride] as the compound, how does the IC50 (HEK293/hERG) read?
A: > 10 µM

Q: What about the inhibition at 1 µM (human, HEK293 cells stably expressing hERG, pH 7.4, 1 μM, HEK293/hERG, room temperature, read-out: Mean percentage of hERG current inhibited) of the same compound?
A: 2.6%

Q: And the inhibition at 3 µM [1]?
A: 11.3%

Q: What about the inhibition at 10 µM [1] of the same compound?
A: 15.9%
